Data taken from patent US9695173B2, “Pharmaceutical compositions for the treatment of capillary arteriopathy” (SINOXA PHARMA GMBH, priority 2006, dated 2017).

Tests used:
Type in all cases: in vivo, rat
[1] = system: male Sprague-Dawley rats; assay: Monocrotaline pulmonary hypertension model, treatment from day 14: right ventricular and systemic pressure
Procedure: (§1) 1 monocrotaline (60 mg/kg; Sigma) was administered to rats on the day of the experiment. For this purpose, the substance was dissolved in 0.5 molar hydrochloric acid and the pH value was then adjusted to 7.4 with 0.5 molar sodium hydroxide solution. The solution was administered to male Sprague-Dawley rats as a single subcutaneous injection in a dose of 60 mg/kg. The same volume of isotonic saline solution was administered to control animals.
(§2) The dosage specifications in this case relate to the free base of the substances. The substances were used as hydrogenmaleate salt or free base. They were introduced into distilled water in the presence of traces of ascorbic acid and administered by oesophageal tube in the morning and in the evening in a volume of 2 mL. The same quantity of water was administered to control animals.
(§3) On day 28 of the experiment, 2 hours after the last administration of the substance, the animals were put under general anesthesia using pentobarbital. Then, a tracheostomy was performed on the animals and the animals were respirated at 10 ml/kg and a frequency of […] (SAR830A/P; IITC). Anesthesia was maintained by inhalation of isoflurane.
The mean arterial pressure and the right ventricular systolic blood pressure were determined. The systemic arterial pressure was measured using a Millar catheter in the left carotid artery. A millar catheter with a pressure sensor (Millar Instruments, model SPR-534) was inserted through the right jugular vein and pushed up to the right ventricle of the heart and used for measuring the right ventricular pressure (RVSP). The signal was amplified by means of a HSE coupler Series 500 and supplied to a registration unit for evaluation.

[2] = system: male Sprague-Dawley rats; assay: Monocrotaline pulmonary hypertension model, treatment from day 14: hydroxyproline (collagen) content of the lung; conditions: monocrotaline 60 mg/kg s.c. day 1; 0.25 mg/kg Lisuride bid or 2.5 mg/kg Terguride bid, days 14-28; right lung day 28; averages ± SEM, N=6
Procedure: as §1, §2
After the pressure measurements had been performed, the rats were perfused with physiological saline solution. The right lung was removed, deep-frozen and processed for determining the collagen content. To this end, the tissue was first homogenized and analyzed, drawing on the method by Berg (Meths Enzymol. 82, 372 (1982)). […] The color complex created was measured photometrically at 560 nm and the hydroxprolin content of the samples was determined by means of a calibration curve. […]

[3] = system: male Sprague-Dawley rats; assay: Monocrotaline pulmonary hypertension model, treatment days 1-28: RVSP and SAP; conditions: monocrotaline 60 mg/kg s.c. day 1, 0.4 mg/kg Terguride bid (table), measured day 28, averages ± SD, N=4
Procedure: as §1
(§4) […] Terguride was introduced into distilled water in the presence of traces of ascorbic acid and administered by oesophageal tube in the morning and in the evening in a volume of 2 mL. The same quantity of physiological saline solution was administered to control animals.
as §3
The mean arterial pressure and the right ventricular systolic blood pressure were determined. The systemic arterial pressure was measured using a Millar catheter in the left carotid artery. […]

[4] = system: male Sprague-Dawley rats; assay: Monocrotaline pulmonary hypertension model, treatment days 1-28: right ventricular hypertrophy; conditions: 0.4 mg/kg Terguride bid (table), dry weights, averages ± SD, N=4
Procedure: as §1, §4
After the pressure measurements had been performed, the rats were perfused with physiological saline solution. The heart was removed and prepared by dissection of the right ventricle, the septum as well as the left ventricle of each heart. The tissue preparations were freeze-dried and the dry weights were then determined by weighing out. For each individual animal, the quotient: weight of the right ventricle/weight of the left ventricle and septum (RV/LV+S) was determined from these animals as a measure for right ventricular hypertrophy.

[5] = system: male Sprague-Dawley rats; assay: Monocrotaline pulmonary hypertension model, treatment days 1-28: muscularization of arterial capillary vessels of the lung; conditions: 0.4 mg/kg Terguride bid (table), lung arterial capillary vessels 20-50 μm, averages ± SD, N=4
Procedure: as §1, §4
The lungs were removed, fixated in formalin and embedded in paraffin. Paraffin sections were obtained and an immunohistochemical double staining was carried out according to standard protocols. Smooth muscle cells of the vessels were stained with an antibody against actin and the endothelium was stained by means of antibodies against von Willebrand factor. […] The vessels were subdivided into 3 categories: non-muscularized vessels with 20%, partially muscularized vessels with >20%, but <70%, and fully muscularized vessels with >70% lining of the cross-section of the vessel with smooth muscle cells.

[6] = monocrotaline 60 mg/kg s.c. day 1, 0.25 mg/kg Lisuride bid or 2.5 mg/kg Terguride bid by oesophageal tube, days 14-28, measured day 28, averages ± SEM, N=6

Structure (SMILES) | RVPsys (systolic pressure in the right ventricle) [1, 6] | Increase in pressure in the right ventricle (in words) ([1]; monocrotaline rats, therapy started 14 days after monocrotaline) | Hydroxyproline content of the lung [2] | SAP (systemic arterial pressure) [1, 6] | RVSP (right ventricular systolic pressure) [3] | SAP (systemic arterial pressure) [3] | RV/LV + S (weight of right ventricle vs. weight of left ventricle and septum) [4] | Proportion of fully muscularized vessel [5] | Proportion of non-muscularized vessel [5] | Proportion of partially muscularized vessel [5]
CCN(CC)C(=O)N[C@H]1C=C2c3cccc4[nH]cc(c34)C[C@H]2N(C)C1 [Lisuride, 3-(9,10-didehydro-6-methylergoline-8alpha-yl)-1,1-diethylurea] | 43 ± 7 mmHg | reduces | 3.3 ± 0.8 ug/g protein | – | – | – | – | – | – | –
CCN(CC)C(=O)N[C@H]1C[C@@H]2c3cccc4[nH]cc(c34)C[C@H]2N(C)C1 [Terguride, (+)-1,1-diethyl-3-(6-methyl-8α-ergolinyl)-urea] | 39 ± 3 mmHg | – | 2.7 ± 1.2 ug/g protein | 111 ± 7 mmHg | 36.4 ± 3.6 mmHg | 97.5 ± 15.2 mmHg | 0.33 ± 0.08 | 21.3 ± 12.6% | 1.9 ± 1.6% | 57.8 ± 14.6%
